Inhibition and IC50 data for 26 compounds are collected here from patent US8513251B2, “Pyridazinone compounds” (Takeda Pharmaceutical Company Limited, priority 2009, dated 2013).

In the test the target is T1, Human PDE10A enzyme (Homo sapiens, UniProt Q9Y233).
T1 construct: Human PDE10A enzyme was generated from Sf9 or COS-7 cells transfected with the full-length gene; His-tag; made in house; host or cells: Sf9 or COS-7 cells
The test is described as follows: PDE enzyme inhibition, SPA (Scintillation Proximity Assay). The class given is biochemical. Particulars: for inhibition at 1 µM: compound at 1 μM, read-out: Percent inhibition (1 μM); for IC50: human PDE10A, [3H]cGMP substrate; for inhibition at 0.1 µM: read-out: Percent inhibition (0.1 μM). The procedure:
Human PDE10A enzyme was generated from Sf9 or COS-7 cells transfected with the full-length gene. Cloned enzyme was extracted from homogenized cell pellets. The extracted enzyme from Sf9 cells was partially purified using His-tag affinity column. The enzyme was stored at −70° C. until use. PDE activity was measured using a SPA (Scintillation Proximity Assay) (GE Healthcare). To evaluate the inhibitory activity, 10 μL of serial diluted compounds were incubated with 20 μL of PDE enzyme in assay buffer (50 mM HEPES-NaOH, 8.3 mM MgCl2, 1.7 mM EGTA, 0.1% BSA (pH 7.4)) for 30 min. at room temperature. Final concentration of DMSO in the assay was 1 percent as compounds were tested in duplicate in 96-well half-area plates (Corning). To start the reaction, 10 μL of substrate [3H] cGMP (25 or 50 nM; enclosed in SPA kits from GE Healthcare or purchased from PerkinElmer, respectively) was added for a final assay volume of 40 μL. After 60 min incubation at room temperature, yttrium SPA beads containing Zinc sulphate were added (20 μL at 6 mg/mL) to terminate the PDE reaction. After being settled for 60 min., assay plates were counted in a scintillation counter (PerkinElmer) to allow calculation of inhibition rate and IC50. Inhibition rate was calculated on the basis of 0% control wells with DMSO and 100% control wells without enzyme.

Like-named read-outs stand apart in the source and are kept apart here.

T1 sequence (Q9Y233 267-1055): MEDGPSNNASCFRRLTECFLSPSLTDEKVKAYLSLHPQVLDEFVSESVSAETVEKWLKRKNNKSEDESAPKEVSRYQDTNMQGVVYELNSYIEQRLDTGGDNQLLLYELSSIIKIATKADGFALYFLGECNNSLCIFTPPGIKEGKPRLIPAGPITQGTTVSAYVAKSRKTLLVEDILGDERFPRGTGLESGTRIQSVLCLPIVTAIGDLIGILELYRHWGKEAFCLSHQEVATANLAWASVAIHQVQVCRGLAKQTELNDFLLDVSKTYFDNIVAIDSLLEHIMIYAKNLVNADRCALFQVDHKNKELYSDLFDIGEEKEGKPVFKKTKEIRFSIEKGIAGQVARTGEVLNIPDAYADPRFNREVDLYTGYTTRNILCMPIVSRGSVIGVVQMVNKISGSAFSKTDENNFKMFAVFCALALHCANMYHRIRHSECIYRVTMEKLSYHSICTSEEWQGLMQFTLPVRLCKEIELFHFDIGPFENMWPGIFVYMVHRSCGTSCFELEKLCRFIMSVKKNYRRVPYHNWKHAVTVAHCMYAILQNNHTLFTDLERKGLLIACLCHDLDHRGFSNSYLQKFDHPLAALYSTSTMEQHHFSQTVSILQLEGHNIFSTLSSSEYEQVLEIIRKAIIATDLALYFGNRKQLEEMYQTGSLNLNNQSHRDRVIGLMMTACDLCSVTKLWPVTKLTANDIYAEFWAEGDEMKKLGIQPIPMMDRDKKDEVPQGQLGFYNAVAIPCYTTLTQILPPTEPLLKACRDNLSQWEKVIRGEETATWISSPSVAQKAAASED

As usually defined, the inhibition is the drop in the measured response relative to a control, in per cent. The term IC50 denotes the midpoint of a concentration-inhibition curve. Lower therefore signals inhibition by little substance. `N#Cc1ccc(-n2ccc(=O)c(-c3ccnn3-c3ccccc3)n2)cc1` [Example 46, 4-[4-Oxo-3-(1-phenyl-1H-pyrazol-5-yl)pyridazin-1(4H)-yl]benzonitrile]: where the note is “Table 1”, the inhibition at 1 µM amounted to 97% and the IC50 was 10 to 200 nM.

With `O=c1ccn(-c2ccc(S(=O)(=O)N3CCOCC3)cc2)nc1-c1ccnn1-c1ccccc1` [Example 48, 1-[4-(Morpholin-4-ylsulfonyl)phenyl]-3-(1-phenyl-1H-pyrazol-5-yl)pyridazin-4(1H)-one], under “Table 1”, the inhibition at 1 µM was 100% and the IC50 was below 10 nM.

Regarding `NC(=O)c1ccc(-n2ccc(=O)c(-c3ccnn3-c3ccccc3)n2)cc1` [Example 49, 4-[4-Oxo-3-(1-phenyl-1H-pyrazol-5-yl)pyridazin-1(4H)-yl]benzamide], for the setting “Table 1”, the inhibition at 1 µM was 98% and the IC50 was below 10 nM.

Turning to `CCOc1cn(-c2cccc(C(F)(F)F)c2)nc(-c2ccnn2-c2ccccc2)c1=O` [Example 59, 5-Ethoxy-3-(1-phenyl-1H-pyrazol-5-yl)-1-[3-(trifluoromethyl)phenyl]pyridazin-4(1H)-one], under “Table 1”, the inhibition at 1 µM was determined as 96% and the IC50 is 10 to 200 nM.

Regarding `COc1cn(-c2ccc(N3CC(F)(F)C3)cc2F)nc(-c2ccnn2-c2ccccc2)c1=O` [Example 102, 1-[4-(3,3-Difluoroazetidin-1-yl)-2-fluorophenyl]-5-methoxy-3-(1-phenyl-1H-pyrazol-5-yl)pyridazin-4(1H)-one], the inhibition at 0.1 µM (Table 2, compound at 0.1 μM) is 103%. This compound also came in with a concentration for half-maximal inhibition (IC50) (Table 2) below 10 nM.

Consider `COc1cn(-c2ccc(N3CCC(F)(F)C3)cc2F)nc(-c2ccnn2-c2ccccc2)c1=O` [Example 103, 1-[4-(3,3-Difluoropyrrolidin-1-yl)-2-fluorophenyl]-5-methoxy-3-(1-phenyl-1H-pyrazol-5-yl)pyridazin-4(1H)-one], for which the inhibition at 0.1 µM (Table 2, compound at 0.1 μM) came out at 99%. In addition, the IC50 (Table 2) was below 10 nM.

With `COc1cn(-c2ccc(N3CC(F)(F)C(F)(F)C3)cc2F)nc(-c2ccnn2-c2ccccc2)c1=O` [Example 104, 1-[2-Fluoro-4-(3,3,4,4-tetrafluoropyrrolidin-1-yl)phenyl]-5-methoxy-3-(1-phenyl-1H-pyrazol-5-yl)pyridazin-4(1H)-one], the inhibition at 0.1 µM (Table 2, compound at 0.1 μM) amounted to 99%. The same compound yielded an IC50 (Table 2) below 10 nM.

With `COc1cn(-c2ccc(N3CCC(F)(F)CC3)cc2F)nc(-c2ccnn2-c2ccccc2)c1=O` [Example 106, 1-[4-(4,4-Difluoropiperidin-1-yl)-2-fluorophenyl]-5-methoxy-3-(1-phenyl-1H-pyrazol-5-yl)pyridazin-4(1H)-one], for the setting “Table 2, compound at 0.1 μM”, the inhibition at 0.1 µM amounted to 100%. In addition, the IC50 (Table 2) is below 10 nM.

Regarding `COc1cn(-c2ccc(N3CCCC3=O)cc2F)nc(-c2ccnn2-c2ccccc2)c1=O` [Example 108, 1-[2-Fluoro-4-(2-oxopyrrolidin-1-yl)phenyl]-5-methoxy-3-(1-phenyl-1H-pyrazol-5-yl)pyridazin-4(1H)-one], where the note is “Table 2, compound at 0.1 μM”, the inhibition at 0.1 µM came to 103%. Further, the concentration for half-maximal inhibition (IC50) (Table 2) is below 10 nM.

As to `COc1cn(-c2ccc(N3CCOC3=O)cc2F)nc(-c2ccnn2-c2ccccc2)c1=O` [Example 109, 1-[2-Fluoro-4-(2-oxo-1,3-oxazolidin-3-yl)phenyl]-5-methoxy-3-(1-phenyl-1H-pyrazol-5-yl)pyridazin-4(1H)-one], the inhibition at 0.1 µM (Table 2, compound at 0.1 μM) turned out to be 99%. For the setting “Table 2”, this compound returned an IC50 below 10 nM.

Take `COc1cn(-c2ccc(-n3ccnc3)cc2F)nc(-c2ccnn2-c2ccccc2)c1=O` [Example 111, 1-[2-Fluoro-4-(1H-imidazol-1-yl)phenyl]-5-methoxy-3-(1-phenyl-1H-pyrazol-5-yl)pyridazin-4(1H)-one]: the inhibition at 0.1 µM (Table 2, compound at 0.1 μM) stood at 97%. Moreover, the IC50 (Table 2) is below 10 nM.

`COc1cn(-c2cccc(-c3cnn(C)c3)c2F)nc(-c2ccnn2-c2ccccc2)c1=O` [Example 113, 1-[2-Fluoro-3-(1-methyl-1H-pyrazol-4-yl)phenyl]-5-methoxy-3-(1-phenyl-1H-pyrazol-5-yl)pyridazin-4(1H)-one]: the inhibition at 0.1 µM (Table 2, compound at 0.1 μM) was found to be 99%. Besides, the IC50 (Table 2) was below 10 nM.

For the compound `COc1cn(-c2ccc(-c3cnn(C)c3)cc2F)nc(-c2ccnn2-c2ccccc2)c1=O` [Example 114, 1-[2-Fluoro-4-(1-methyl-1H-pyrazol-4-yl)phenyl]-5-methoxy-3-(1-phenyl-1H-pyrazol-5-yl)pyridazin-4(1H)-one], the inhibition at 0.1 µM (Table 2, compound at 0.1 μM) turned out to be 102%. Also, the IC50 (Table 2) is below 10 nM.

On to `COc1cn(-c2ccc(-c3cnn(C(F)F)c3)cc2F)nc(-c2ccnn2-c2ccccc2)c1=O` [Example 116, 1-{4-[1-(Difluoromethyl)-1H-pyrazol-4-yl]-2-fluorophenyl}-5-methoxy-3-(1-phenyl-1H-pyrazol-5-yl)pyridazin-4(1H)-one], for which, for the setting “Table 2, compound at 0.1 μM”, the inhibition at 0.1 µM worked out at 99%. Also, the IC50 (Table 2) is below 10 nM.

As to `COc1cn(-c2ccc(-n3cc(F)c(F)c3)cc2F)nc(-c2ccnn2-c2ccccc2)c1=O` [Example 119, 1-[4-(3,4-Difluoro-1H-pyrrol-1-yl)-2-fluorophenyl]-5-methoxy-3-(1-phenyl-1H-pyrazol-5-yl)pyridazin-4(1H)-one], the inhibition at 0.1 µM (Table 2, compound at 0.1 μM) stood at 100%. Where the note is “Table 2”, this compound returned an IC50 below 10 nM.

As to `COc1cn(-c2ccc(-n3cccn3)cc2F)nc(-c2ccnn2-c2ccccc2)c1=O` [Example 120, 1-[2-Fluoro-4-(1H-pyrazol-1-yl)phenyl]-5-methoxy-3-(1-phenyl-1H-pyrazol-5-yl)pyridazin-4(1H)-one], the inhibition at 0.1 µM came out at 100%.

On to `COc1cn(-c2ccc(-n3nccc3OC(F)F)cc2F)nc(-c2ccnn2-c2ccccc2)c1=O` [Example 123, 1-{4-[5-(Difluoromethoxy)-1H-pyrazol-1-yl]-2-fluorophenyl}-5-methoxy-3-(1-phenyl-1H-pyrazol-5-yl)pyridazin-4(1H)-one], for which, under “Table 2, compound at 0.1 μM”, the inhibition at 0.1 µM came out at 99%. Under “Table 2”, this compound came in with an IC50 below 10 nM.

As for `COc1cn(-c2ccc(-n3c(=O)ccn3C(F)F)cc2F)nc(-c2ccnn2-c2ccccc2)c1=O` [Example 124, 1-{4-[2-(Difluoromethyl)-5-oxo-2,5-dihydro-1H-pyrazol-1-yl]-2-fluorophenyl}-5-methoxy-3-(1-phenyl-1H-pyrazol-5-yl)pyridazin-4(1H)-one], for the setting “Table 2, compound at 0.1 μM”, the inhibition at 0.1 µM turned out to be 97%. This compound came in with an IC50 (Table 2) below 10 nM.

With `COc1cn(-c2ccc(-n3cccn3)cc2F)nc(-c2ccnn2-c2ccccc2F)c1=O` [Example 163, 3-[1-(2-Fluorophenyl)-1H-pyrazol-5-yl]-1-[2-fluoro-4-(1H-pyrazol-1-yl)phenyl]-5-methoxypyridazin-4(1H)-one], where the note is “Table 2, compound at 0.1 μM”, the inhibition at 0.1 µM stood at 101%. Where the note is “Table 2”, this compound had an IC50 below 10 nM.

For the compound `COc1cn(-c2ccc(-n3cccn3)cc2F)nc(-c2ccnn2-c2cccc(Cl)c2)c1=O` [Example 164, 3-[1-(3-Chlorophenyl)-1H-pyrazol-5-yl]-1-[2-fluoro-4-(1H-pyrazol-1-yl)phenyl]-5-methoxypyridazin-4(1H)-one], the inhibition at 0.1 µM (Table 2, compound at 0.1 μM) worked out at 101%. Under “Table 2”, the IC50 was below 10 nM.

`COc1cn(-c2ccc(N3CCN(C)C3=O)cc2F)nc(-c2ccnn2-c2ccccc2)c1=O` [Example 178, 1-[2-fluoro-4-(3-methyl-2-oxoimidazolidin-1-yl)phenyl]-5-methoxy-3-(1-phenyl-1H-pyrazol-5-yl)pyridazin-4(1H)-one]: the inhibition at 0.1 µM (Table 2, compound at 0.1 μM) was 92%. Further, the IC50 (Table 2) is below 10 nM.

On to `COc1cn(-c2ccc(N3CC=CC3)cc2F)nc(-c2ccnn2-c2ccccc2)c1=O` [Example 179, 1-[4-(2,5-Dihydro-1H-pyrrol-1-yl)-2-fluorophenyl]-5-methoxy-3-(1-phenyl-1H-pyrazol-5-yl)pyridazin-4(1H)-one], for which the inhibition at 0.1 µM (Table 2, compound at 0.1 μM) was determined as 96%. In addition, where the note is “Table 2”, the IC50 was below 10 nM.

As for `COc1cn(-c2ccc(-n3cc(Cl)cn3)cc2F)nc(-c2ccnn2-c2ccccc2)c1=O` [Example 180, 1-[4-(4-Chloro-1H-pyrazol-1-yl)-2-fluorophenyl]-5-methoxy-3-(1-phenyl-1H-pyrazol-5-yl)pyridazin-4(1H)-one], the inhibition at 0.1 µM (Table 2, compound at 0.1 μM) was 96%. This compound came in with an IC50 (Table 2) below 10 nM.

In the case of `COc1cn(-c2ccc(N3CCC(C)(O)CC3)cc2F)nc(-c2ccnn2-c2ccccc2)c1=O` [Example 186, 1-[2-Fluoro-4-(4-hydroxy-4-methylpiperidin-1-yl)phenyl]-5-methoxy-3-(1-phenyl-1H-pyrazol-5-yl)pyridazin-4(1H)-one], the inhibition at 0.1 µM (Table 2, compound at 0.1 μM) is 100%. In addition, for the setting “Table 2”, the IC50 is below 10 nM.

Turning to `COc1cn(-c2ccc(N3CC(C)(C)CC3=O)cc2F)nc(-c2ccnn2-c2ccccc2)c1=O` [Example 189, 1-[4-(4,4-Dimethyl-2-oxopyrrolidin-1-yl)-2-fluorophenyl]-5-methoxy-3-(1-phenyl-1H-pyrazol-5-yl)pyridazin-4(1H)-one], the inhibition at 0.1 µM (Table 2, compound at 0.1 μM) was 100%. This compound also displayed a concentration for half-maximal inhibition (IC50) (Table 2) below 10 nM.

As to `COc1cn(-c2ccc(N3CC(C)(C)OC3=O)cc2F)nc(-c2ccnn2-c2ccccc2)c1=O` [Example 190, 1-[4-(5,5-Dimethyl-2-oxo-1,3-oxazolidin-3-yl)-2-fluorophenyl]-5-methoxy-3-(1-phenyl-1H-pyrazol-5-yl)pyridazin-4(1H)-one], under “Table 2, compound at 0.1 μM”, the inhibition at 0.1 µM turned out to be 100%. The concentration for half-maximal inhibition (IC50) (Table 2) is below 10 nM.
